From PMC3519854, “High Yield Production and Refolding of the Double-Knot Toxin, an Activator of TRPV1 Channels” (PLoS ONE, 2012)
Positions of bridges follow the written chain, without caps; N, C: chain ends. Residues, ends and D or L forms follow the SMILES beside them.

Assays:
[1] = Relative hydrophobicity by RP-HPLC elution of folded versus linear toxin; type: physicochemical; conditions: RP-HPLC C18, acetonitrile/water gradient with 0.1% TFA, qualitative
Procedure: Figure 3 Purification and activity of the DkTx folding product. (A) Purification of linear DkTx. Cleavage of the fusion protein and reduction of the disulfide bond were accomplished using hydroxylamine and DTT, respectively, as described in methods. (B) Linear DkTx was folded in 1 M NH4OAc (pH 8.0) buffer containing 1 M GdnHCl, 1 mM EDTA, 2.5 mM GSH and 0.25 mM GSSG for 5 days at 4°C. The toxins were purified using a linear gradient of 29–44% solvent B for 15 min at a flow rate of 14 ml/min, where solvent A was water containing 0.1% TFA and solvent B was acetonitrile containing 0.1% TFA. (C) Fraction 5 activated TRPV1 expressed in oocytes. Holding voltage was −60 mV.
Figure 4 HPLC profiles of DkTx during the folding reaction. The peptides were separated using a linear gradient of 5–65% solvent B for 30 min at a flow rate of 1 ml/min, where solvent A was water containing 0.1% TFA and solvent B was acetonitrile containing 0.1% TFA. (A) Oxidative folding of DkTx in redox buffer was monitored by HPLC. Asterisks indicate correctly folded DkTx. (B) HPLC chromatogram of purified DkTx. Dashed and solid arrows indicate the minor and major forms of DkTx, respectively. […]
Figure 5 Folding kinetics of K1, K2 and DkTx. […] Quantification of the folding specifies was accomplished using HPLC. The correctly folded form (%) was determined based on the areas of the HPLC peaks. […]

[2] = tested on: A657P mutant of TRPV1; conditions: cited from earlier work
Description: (§1) The functional activities of DkTx, K1 and K2 were also compared by recording their electrophysiological effects on TRPV1-expressing cells.

[3] = target: T1, rat TRPV1 (Rattus norvegicus, UniProt O35433); assay: Two-electrode voltage clamp recording of TRPV1 activation in oocytes; type: cell-based; conditions: for Relative potency as TRPV1 agonist: comparison of DkTx, K1 and K2, concentration-dependence in oocytes; for Hill coefficient for activation of TRPV1 / Activation of TRPV1 channels (evoked currents) / Reversibility of TRPV1 activation after removal of the toxin: rat TRPV1 in Xenopus oocytes; for Hill coefficient for activation of TRPV1: concentration-dependence; for Activation of TRPV1 channels (evoked currents): holding voltage −60 mV, DkTx applied at 1 µM
T1 construct: expressed in transfected cells; host or cells: Xenopus laevis oocytes injected with cRNA (pGEM-HE vector)
Procedure: (§2) Oocytes were surgically removed from anesthetized Xenopus laevis frogs in accordance with protocol 1253-12 approved by the National Institute of Neurological Disorders and Stroke Animal Care and Use Committee. Oocytes were gently shaken for 60 min in a solution of 82.5 mM NaCl, 2.5 mM KCl, 1 mM MgCl2, 5 mM HEPES and 2 mg/mL collagenase. A rat TRPV1 construct (generously provided by D. Julius, UCSF) was cloned into the pGEM-HE vector, and used to generate cRNA. The cRNA was then injected into oocytes, which were then incubated for 1–3 days at 17°C in ND-96 solution (96 mM NaCl, 2 mM KCl, 5 mM HEPES, 1 mM MgCl2 and 50 µg/mL gentamycin, titrated to pH 7.6 with NaOH). TRPV1 activity was recorded under voltage clamp using a two-electrode voltage clamp (OC-725C; Warner Instruments) in a 150-µL recording chamber. The recorded data were filtered at 1 kHz and digitized at 5 kHz using a digidata analog/digital converter and pClamp software (Molecular Devices). Microelectrode resistances were 0.1–1 MΩ when filled with 3 M KCl. The external recording solution contained 115 mM NaCl, 2.5 mM KCl, 1.5 mM MgCl2 and 10 mM HEPES, titrated to pH 7.4 with NaOH. All experiments were performed at room temperature (∼22°C).
Figure 6 Activity of K1, K2 and DkTx on TRPV1 channels. (A) Synthetic K1, K2 and DkTx activate TRPV1 channels. Oocytes were held at −60 mV and toxins were added to the recording chamber. (B) Concentration-dependence for activation of TRPV1 by the toxins.
as §1

[4] = tested on: A657P mutant of TRPV1; assay: Two-electrode voltage clamp recording on the A657P mutant of TRPV1; type: cell-based; conditions: data not shown
Procedure: as §2, §1

T1 sequence (O35433 whole entry): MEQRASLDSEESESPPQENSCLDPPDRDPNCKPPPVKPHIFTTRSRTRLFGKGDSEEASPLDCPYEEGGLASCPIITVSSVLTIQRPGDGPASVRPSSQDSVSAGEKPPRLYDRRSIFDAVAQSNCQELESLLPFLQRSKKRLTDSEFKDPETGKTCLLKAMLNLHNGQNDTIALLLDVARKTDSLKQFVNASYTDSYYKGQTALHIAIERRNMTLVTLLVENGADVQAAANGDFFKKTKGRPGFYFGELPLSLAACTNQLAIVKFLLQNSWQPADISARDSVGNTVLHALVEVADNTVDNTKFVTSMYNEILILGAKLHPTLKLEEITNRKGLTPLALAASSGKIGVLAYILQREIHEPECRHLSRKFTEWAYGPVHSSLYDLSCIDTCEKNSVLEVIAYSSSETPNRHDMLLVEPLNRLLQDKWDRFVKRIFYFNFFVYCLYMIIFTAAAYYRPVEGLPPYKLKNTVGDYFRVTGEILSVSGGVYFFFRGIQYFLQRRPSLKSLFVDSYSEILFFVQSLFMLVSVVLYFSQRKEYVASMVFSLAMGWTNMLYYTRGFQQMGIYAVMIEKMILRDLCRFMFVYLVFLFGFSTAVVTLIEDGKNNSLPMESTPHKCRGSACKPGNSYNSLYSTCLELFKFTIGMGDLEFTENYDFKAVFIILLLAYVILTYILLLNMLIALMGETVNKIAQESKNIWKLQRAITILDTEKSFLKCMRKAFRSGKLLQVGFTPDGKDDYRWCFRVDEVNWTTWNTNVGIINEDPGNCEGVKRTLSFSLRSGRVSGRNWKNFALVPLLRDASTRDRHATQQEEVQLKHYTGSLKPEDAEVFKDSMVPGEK

Compound	Hydrophobicity of the correctly folded form relative to the linear form [1]	Sensitivity of the A657P mutant of TRPV1 to toxin [2]	Relative potency as TRPV1 agonist [3]	Hill coefficient for activation of TRPV1 [3]	Activation of TRPV1 channels (evoked currents) [3]	Activation of TRPV1 channels (evoked currents) ([3]; listed as fraction 5)	Reversibility of TRPV1 activation after removal of the toxin ([3]; −60 mV)	Block of DkTx-evoked TRPV1 currents ([3]; currents evoked by 1 µM DkTx in oocytes, −60 mV)	Activation of the A657P mutant of TRPV1 [4]
GDCAKEGEVCSWGKKCCDLDNFYCPMEFIPHCKKYKPYVPVTTNCAKEGEVCGWGSKCCHGLDCPLAFIPYCEKYR (disulfide 3-17, 10-24, 16-32, 45-59, 52-64, 58-72 (inferred)) [DkTx, double-knot toxin]	more hydrophobic than the linear form	insensitive	most potent TRPV1 agonist among the three toxins	~1	evoked large currents	robustly activated TRPV1 channels	decayed slowly	–	–
N.N.N.N.N.N.N.N.N.N.N.N.N.N.[Cl-].[Cl-].[Cl-].[Cl-].[Cl-].[Cl-].[O-2].[O-2].[Ru+3].[Ru+3].[Ru+4] [ruthenium red, reference compound]	–	–	–	–	–	–	–	blocked	–
CC[C@H](C)[C@@H]1NC(=O)[C@H](Cc2ccccc2)NC(=O)[C@H](C)NC(=O)[C@H](CC(C)C)NC(=O)[C@@H]2CCCN2C(=O)[C@@H]2CSSC[C@@H]3NC(=O)[C@H](C(C)C)NC(=O)[C@H](CCC(=O)O)NC(=O)CNC(=O)[C@H](CCC(=O)O)NC(=O)[C@H](CCCCN)NC(=O)[C@H](C)NC(=O)[C@@H](NC(=O)[C@@H](N)CC(N)=O)CSSC[C@H](NC(=O)[C@H](CSSC[C@@H](C(=O)N[C@@H](CCC(=O)O)C(=O)N[C@@H](CCCCN)C(=O)N[C@@H](Cc4ccc(O)cc4)C(=O)N[C@@H](CCCNC(=N)N)C(=O)O)NC(=O)[C@H](Cc4ccc(O)cc4)NC(=O)[C@@H]4CCCN4C1=O)NC(=O)[C@H](CCCCN)NC(=O)[C@H](CO)NC(=O)CNC(=O)[C@H](Cc1c[nH]c4ccccc14)NC(=O)CNC3=O)C(=O)N[C@@H](Cc1c[nH]cn1)C(=O)NCC(=O)N[C@@H](CC(C)C)C(=O)N[C@@H](CC(=O)O)C(=O)N2 [K2] (H-NCAKEGEVCGWGSKCCHGLDCPLAFIPYCEKYR-OH; disulfide 2-16, 9-21, 15-29 (inferred); N-terminus and C-terminus assumed)	more hydrophobic than the linear or misfolded forms	–	more active than K1	about 4	–	–	readily reversible	–	neither toxin activated the channel
